Test results reported in ChEMBL document CHEMBL4251601 (Eur J Med Chem, 2018).
Active and inactive are the calls of the source. No cut-off for these calls is given here.

Legend:
[1] = target: Serine/threonine-protein kinase PLK1 (Homo sapiens) (UniProt P53350); test: Inhibition of recombinant human full length His-tagged PLK1 expressed in baculovirus expression system at 1 uM by Z'-Lyte assay relative to control
[2] = target: Receptor tyrosine-protein kinase erbB-2 (Homo sapiens) (UniProt P04626); test: Inhibition of recombinant human His-tagged ERBB2 cytoplasmic domain expressed in baculovirus expression system at 0.1 uM by Z'-Lyte assay relative to control
U-87 MG [3] = test: Antitumor activity against luciferase-fused human U87MG cells orthotopically xenografted in nude mouse assessed as increase in mouse life span at 3.125 mg/kg, po qd for 5 weeks relative to control; assay type: functional, U-87MG ATCC; conditions: 840 h
[4] = target: Ephrin type-A receptor 2 (Homo sapiens) (UniProt P29317); test: Inhibition of recombinant human GST-tagged EPHA2 cytoplasmic domain expressed in baculovirus expression system at 1 uM by Z'-Lyte assay relative to control
[5] = target: Protein-tyrosine kinase 6 (Homo sapiens) (UniProt Q13882); test: Inhibition of recombinant human full length His-tagged PTK6 expressed in baculovirus expression system at 1 uM by TR-FRET assay relative to control
[6] = target: Mitogen-activated protein kinase 1 (Homo sapiens) (UniProt P28482); test: Inhibition of recombinant human full length GST-tagged ERK2 expressed in Escherichia coli at 1 uM by Z'-Lyte assay relative to control
[7] = system: ALK tyrosine kinase receptor (Homo sapiens), Q9UM73 [L1196M]; test: Inhibition of recombinant N-terminal GST-tagged human ALK cytoplasmic domain (1058 to 1620 residues) L1196M mutant expressed in baculovirus expression system at 1 uM by TR-FRET assay relative to control
[8] = 1-octanol-phosphate buffer distribution coefficient, log D of the compound at pH 7.4 after 1 hr by LC-MS/MS method; assay type: physicochemical
[9] = target: Calcium/calmodulin-dependent protein kinase type II subunit beta (Homo sapiens) (UniProt Q13554); test: Inhibition of recombinant full length human His-tagged CAMK2B expressed in baculovirus expression system at 1 uM by Z'-Lyte assay relative to control
U-87 MG [10] = test: Antitumor activity against luciferase-fused human U87MG cells orthotopically xenografted in nude mouse assessed as tumor growth inhibition at 3.125 mg/kg, po qd for 4 weeks by bioluminescence imaging relative to control; assay type: functional, U-87MG ATCC; conditions: 672 h, read-out: TGI
[11] = target: Serine/threonine-protein kinase PAK 4 (Homo sapiens) (UniProt O96013); test: Inhibition of recombinant human GST-tagged PAK4 expressed in baculovirus expression system at 0.1 uM by Z'-Lyte assay relative to control
[12] = target: Phosphatidylinositol 4,5-bisphosphate 3-kinase catalytic subunit gamma isoform (Homo sapiens) (UniProt P48736); test: Inhibition of PI3K gamma (unknown origin) at 0.1 uM by ADP-Glo assay relative to control
[13] = Cmax in CD-1 mouse brain at 10 mg/kg, po administered as single dose by LC-MS/MS analysis; assay type: ADME, organism-based; design: dose 10 mg/kg, route oral
[14] = target: Platelet-derived growth factor receptor beta (Homo sapiens) (UniProt P09619); test: Inhibition of recombinant human His-tagged PDGFRbeta cytoplasmic domain expressed in baculovirus expression system at 0.1 uM by Z'-Lyte assay relative to control
[15] = target: Serine/threonine-protein kinase MRCK beta (Homo sapiens) (UniProt Q9Y5S2); test: Inhibition of recombinant human His-tagged CDC42 BPB expressed in baculovirus expression system at 0.1 uM by Z'-Lyte assay relative to control
[16] = target: Cytoplasmic tyrosine-protein kinase BMX (Homo sapiens) (UniProt P51813); test: Inhibition of recombinant full length human His-tagged BMX expressed in baculovirus expression system at 1 uM by TR-FRET assay relative to control
[17] = target: CDK6/cyclin D3 (Homo sapiens) (UniProt P30281+Q00534); test: Inhibition of recombinant full length human GST-tagged […] expressed in baculovirus expression system at 0.1 uM by TR-FRET assay relative to control
[18] = target: RAC-beta serine/threonine-protein kinase (Homo sapiens) (UniProt P31751); test: Inhibition of recombinant full length human His-tagged AKT2 expressed in baculovirus expression system at 1 uM by TR-FRET assay relative to control
[19] = target: Insulin receptor (Homo sapiens) (UniProt P06213); test: Inhibition of recombinant human GST-tagged INSR cytoplasmic domain expressed in baculovirus expression system at 1 uM by Z'-Lyte assay relative to control
[20] = target: Serine/threonine-protein kinase Chk2 (Homo sapiens) (UniProt O96017); test: Inhibition of recombinant full length human His-tagged CHEK2 expressed in baculovirus expression system at 0.1 uM by Z'-Lyte assay relative to control
[21] = Half life in CD-1 mouse brain at 10 mg/kg, po administered as single dose by LC-MS/MS analysis; assay type: ADME, organism-based
[22] = target: G protein-coupled receptor kinase 4 (Homo sapiens) (UniProt P32298); test: Inhibition of recombinant human full length GST-tagged GRK4 expressed in baculovirus expression system at 1 uM by Z'-Lyte assay relative to control
[23] = target: Tyrosine-protein kinase Srms (Homo sapiens) (UniProt Q9H3Y6); test: Inhibition of recombinant human full length GST-tagged SRMS expressed in baculovirus expression system at 1 uM by TR-FRET assay relative to control
[24] = target: Mitogen-activated protein kinase kinase kinase 9 (Homo sapiens) (UniProt P80192); test: Inhibition of recombinant human GST-tagged MLK1 expressed in baculovirus expression system at 0.1 uM by Z'-Lyte assay relative to control
Mus musculus = test: In vivo inhibition of CDK4/6 in nude mouse xenografted with human COLO205 cells assessed as reduction in Ser-780-phosphorylated Rb level in tumor at 100 mg/kg administered via oral gavage measured after 24 to 48 hrs by Western blot analysis; assay type: functional, organism-based
[25] = target: Tyrosine-protein kinase Mer (Homo sapiens) (UniProt Q12866); test: Inhibition of recombinant human GST-tagged MERTK (578 to 872 residues) expressed in baculovirus expression system at 0.1 uM by Z'-Lyte assay relative to control
[26] = Unbound AUC (0 to 24 hrs) in CD-1 mouse plasma at 10 mg/kg, po administered as single dose by LC-MS/MS analysis; assay type: ADME, organism-based; conditions: in vivo
[27] = target: Tyrosine-protein kinase BTK (Homo sapiens) (UniProt Q06187); test: Inhibition of recombinant full length human His-tagged BTK expressed in baculovirus expression system at 0.1 uM by TR-FRET assay relative to control
[28] = target: Dual specificity tyrosine-phosphorylation-regulated kinase 3 (Homo sapiens) (UniProt O43781); test: Inhibition of recombinant full length human GST-tagged DYRK3 expressed in baculovirus expression system at 1 uM by Z'-Lyte assay relative to control

Serine/threonine-protein kinase PAK 4 (Homo sapiens), sequence (O96013 whole entry, looked up, canonical isoform): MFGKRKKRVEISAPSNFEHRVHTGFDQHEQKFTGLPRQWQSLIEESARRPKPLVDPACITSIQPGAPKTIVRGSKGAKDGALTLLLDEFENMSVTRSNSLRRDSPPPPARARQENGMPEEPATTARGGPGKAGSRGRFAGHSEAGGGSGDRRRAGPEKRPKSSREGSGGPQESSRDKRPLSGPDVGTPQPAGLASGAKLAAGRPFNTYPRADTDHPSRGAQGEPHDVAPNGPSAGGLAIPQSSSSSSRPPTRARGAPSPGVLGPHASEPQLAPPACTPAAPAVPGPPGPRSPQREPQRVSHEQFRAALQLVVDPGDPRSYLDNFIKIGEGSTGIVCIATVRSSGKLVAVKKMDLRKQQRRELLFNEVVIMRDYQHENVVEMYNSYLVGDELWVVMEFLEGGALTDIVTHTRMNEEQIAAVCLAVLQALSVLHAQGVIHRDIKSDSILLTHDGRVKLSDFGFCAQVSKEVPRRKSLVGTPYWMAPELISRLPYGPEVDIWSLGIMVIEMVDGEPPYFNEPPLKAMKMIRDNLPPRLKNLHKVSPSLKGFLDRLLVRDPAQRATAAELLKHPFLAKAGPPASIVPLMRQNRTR
RAC-beta serine/threonine-protein kinase (Homo sapiens), sequence (P31751 whole entry, the tested form may be a part): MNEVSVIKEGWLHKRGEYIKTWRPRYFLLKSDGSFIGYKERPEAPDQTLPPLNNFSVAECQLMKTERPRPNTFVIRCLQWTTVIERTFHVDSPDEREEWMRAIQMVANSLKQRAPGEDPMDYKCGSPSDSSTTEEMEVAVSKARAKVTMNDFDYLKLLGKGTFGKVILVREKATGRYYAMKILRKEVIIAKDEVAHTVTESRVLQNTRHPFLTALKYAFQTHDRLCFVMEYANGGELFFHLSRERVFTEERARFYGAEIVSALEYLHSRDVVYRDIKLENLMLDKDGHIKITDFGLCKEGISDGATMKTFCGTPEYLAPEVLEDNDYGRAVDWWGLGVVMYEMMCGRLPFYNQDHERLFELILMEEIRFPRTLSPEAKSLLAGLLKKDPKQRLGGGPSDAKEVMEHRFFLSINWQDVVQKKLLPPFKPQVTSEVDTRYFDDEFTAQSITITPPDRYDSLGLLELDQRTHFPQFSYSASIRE
Platelet-derived growth factor receptor beta (Homo sapiens), sequence (P09619 whole entry, the tested form may be a part): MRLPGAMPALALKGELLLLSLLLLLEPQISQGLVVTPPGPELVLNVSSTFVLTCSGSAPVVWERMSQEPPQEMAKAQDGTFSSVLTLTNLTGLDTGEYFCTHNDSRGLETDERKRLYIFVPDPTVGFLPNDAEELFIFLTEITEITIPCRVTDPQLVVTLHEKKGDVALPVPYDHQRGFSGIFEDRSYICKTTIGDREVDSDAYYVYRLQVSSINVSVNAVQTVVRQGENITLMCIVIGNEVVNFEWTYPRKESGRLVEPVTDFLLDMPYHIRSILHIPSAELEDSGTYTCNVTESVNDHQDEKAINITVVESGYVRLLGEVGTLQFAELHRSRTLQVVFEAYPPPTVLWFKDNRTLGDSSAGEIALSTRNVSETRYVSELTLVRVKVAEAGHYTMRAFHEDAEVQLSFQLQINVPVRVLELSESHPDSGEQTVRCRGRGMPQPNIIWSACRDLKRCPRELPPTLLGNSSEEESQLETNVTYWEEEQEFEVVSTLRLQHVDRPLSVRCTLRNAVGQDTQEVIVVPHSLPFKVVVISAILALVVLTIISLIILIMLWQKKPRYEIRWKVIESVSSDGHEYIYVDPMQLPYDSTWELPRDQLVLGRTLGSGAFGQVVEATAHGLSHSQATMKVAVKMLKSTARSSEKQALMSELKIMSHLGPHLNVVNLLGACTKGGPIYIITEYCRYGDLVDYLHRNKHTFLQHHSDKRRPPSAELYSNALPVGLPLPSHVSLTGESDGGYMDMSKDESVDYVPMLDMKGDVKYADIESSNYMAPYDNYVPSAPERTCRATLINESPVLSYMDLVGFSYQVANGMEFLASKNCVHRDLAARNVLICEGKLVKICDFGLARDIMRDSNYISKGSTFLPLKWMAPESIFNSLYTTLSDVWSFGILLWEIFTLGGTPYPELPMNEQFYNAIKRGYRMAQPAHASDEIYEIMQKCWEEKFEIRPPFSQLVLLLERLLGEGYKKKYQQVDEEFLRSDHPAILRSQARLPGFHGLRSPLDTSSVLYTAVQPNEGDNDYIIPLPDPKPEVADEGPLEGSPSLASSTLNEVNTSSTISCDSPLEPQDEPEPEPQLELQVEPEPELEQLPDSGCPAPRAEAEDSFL
ALK tyrosine kinase receptor (Homo sapiens), Q9UM73 [L1196M], sequence (Q9UM73 whole entry L1196M, looked up, the tested form may be a part): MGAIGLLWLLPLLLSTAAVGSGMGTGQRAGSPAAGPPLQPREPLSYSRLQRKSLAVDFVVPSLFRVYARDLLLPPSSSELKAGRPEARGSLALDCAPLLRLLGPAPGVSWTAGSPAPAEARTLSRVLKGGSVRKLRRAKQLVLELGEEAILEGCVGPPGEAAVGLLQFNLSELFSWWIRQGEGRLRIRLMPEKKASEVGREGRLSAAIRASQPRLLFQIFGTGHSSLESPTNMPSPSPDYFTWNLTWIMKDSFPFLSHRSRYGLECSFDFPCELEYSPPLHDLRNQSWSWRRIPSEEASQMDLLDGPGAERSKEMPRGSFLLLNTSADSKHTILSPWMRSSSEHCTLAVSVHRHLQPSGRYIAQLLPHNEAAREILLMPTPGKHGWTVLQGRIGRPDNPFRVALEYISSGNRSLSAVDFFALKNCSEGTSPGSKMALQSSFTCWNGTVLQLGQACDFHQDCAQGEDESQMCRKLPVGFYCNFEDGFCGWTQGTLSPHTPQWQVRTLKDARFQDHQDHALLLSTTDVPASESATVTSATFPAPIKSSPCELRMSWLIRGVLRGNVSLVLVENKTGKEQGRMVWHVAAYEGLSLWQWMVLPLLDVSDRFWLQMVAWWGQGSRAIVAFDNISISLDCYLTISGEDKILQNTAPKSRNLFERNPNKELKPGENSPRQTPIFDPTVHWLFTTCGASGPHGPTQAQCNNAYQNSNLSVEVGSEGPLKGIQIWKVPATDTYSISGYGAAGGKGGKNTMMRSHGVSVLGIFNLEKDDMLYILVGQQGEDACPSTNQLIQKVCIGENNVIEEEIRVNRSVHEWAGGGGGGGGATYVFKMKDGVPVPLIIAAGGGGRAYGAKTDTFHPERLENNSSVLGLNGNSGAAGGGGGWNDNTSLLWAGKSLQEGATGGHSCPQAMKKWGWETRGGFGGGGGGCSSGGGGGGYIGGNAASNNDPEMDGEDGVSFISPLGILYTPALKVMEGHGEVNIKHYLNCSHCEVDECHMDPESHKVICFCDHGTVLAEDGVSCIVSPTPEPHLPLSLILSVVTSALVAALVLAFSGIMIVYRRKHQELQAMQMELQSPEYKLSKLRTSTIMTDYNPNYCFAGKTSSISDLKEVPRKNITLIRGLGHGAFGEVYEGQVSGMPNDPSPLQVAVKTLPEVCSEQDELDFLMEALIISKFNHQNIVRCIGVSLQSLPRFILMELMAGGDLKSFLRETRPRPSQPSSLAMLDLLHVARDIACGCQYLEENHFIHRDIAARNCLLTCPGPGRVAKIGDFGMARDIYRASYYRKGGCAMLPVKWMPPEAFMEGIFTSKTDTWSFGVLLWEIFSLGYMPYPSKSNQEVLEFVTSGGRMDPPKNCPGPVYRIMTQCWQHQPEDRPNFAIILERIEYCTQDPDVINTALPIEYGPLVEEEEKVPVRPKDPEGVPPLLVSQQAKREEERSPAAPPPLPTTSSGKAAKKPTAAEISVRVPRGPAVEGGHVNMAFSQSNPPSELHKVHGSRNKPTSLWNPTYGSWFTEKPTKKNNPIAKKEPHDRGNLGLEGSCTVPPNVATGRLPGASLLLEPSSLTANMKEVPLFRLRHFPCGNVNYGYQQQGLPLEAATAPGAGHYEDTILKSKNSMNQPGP
Cytoplasmic tyrosine-protein kinase BMX (Homo sapiens), sequence (P51813 whole entry): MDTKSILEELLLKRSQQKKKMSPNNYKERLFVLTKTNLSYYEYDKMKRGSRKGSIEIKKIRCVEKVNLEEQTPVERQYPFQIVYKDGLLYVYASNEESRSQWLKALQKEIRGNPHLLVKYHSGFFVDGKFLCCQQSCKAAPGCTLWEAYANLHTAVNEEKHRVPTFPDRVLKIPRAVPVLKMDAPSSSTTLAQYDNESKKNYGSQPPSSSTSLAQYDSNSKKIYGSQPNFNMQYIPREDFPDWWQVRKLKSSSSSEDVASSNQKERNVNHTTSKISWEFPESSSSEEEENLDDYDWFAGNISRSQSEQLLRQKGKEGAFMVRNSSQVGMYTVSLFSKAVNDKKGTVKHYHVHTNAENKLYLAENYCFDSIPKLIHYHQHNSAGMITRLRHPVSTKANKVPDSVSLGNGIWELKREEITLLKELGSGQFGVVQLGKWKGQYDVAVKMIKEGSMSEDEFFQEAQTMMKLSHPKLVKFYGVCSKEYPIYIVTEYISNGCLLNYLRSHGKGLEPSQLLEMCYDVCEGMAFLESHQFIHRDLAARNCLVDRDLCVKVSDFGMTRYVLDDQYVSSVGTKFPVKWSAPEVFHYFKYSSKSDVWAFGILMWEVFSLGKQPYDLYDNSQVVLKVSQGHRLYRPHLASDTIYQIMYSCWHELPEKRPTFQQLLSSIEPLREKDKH
Mitogen-activated protein kinase 1 (Homo sapiens), sequence (P28482 whole entry, the tested form may be a part): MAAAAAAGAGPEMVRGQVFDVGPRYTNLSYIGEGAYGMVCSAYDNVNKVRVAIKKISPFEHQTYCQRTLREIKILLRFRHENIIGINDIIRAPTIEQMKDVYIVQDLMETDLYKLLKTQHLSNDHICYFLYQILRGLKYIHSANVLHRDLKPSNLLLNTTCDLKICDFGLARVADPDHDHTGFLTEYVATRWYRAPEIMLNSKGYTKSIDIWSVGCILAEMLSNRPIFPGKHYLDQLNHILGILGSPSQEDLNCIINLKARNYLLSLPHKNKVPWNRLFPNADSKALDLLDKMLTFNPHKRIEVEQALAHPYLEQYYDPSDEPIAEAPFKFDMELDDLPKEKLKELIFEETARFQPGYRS

## CC1=Nc2c(F)cc(-c3nc(Nc4ccc(C5CCN(C)CC5)cn4)ncc3F)cc2C12CCCC2 [CROZBACICLIB]
[1]
  inhibition: 0%
[2]
  inhibition: 1%
U-87 MG [3]
  ILS at 3.125 mg/kg: 28%
[4]
  inhibition: 4%
[5]
  inhibition: 34%
[6]
  inhibition: 5%
[7]
  inhibition: 34%
[8]
  logD at 1 h: 3.49
[9]
  inhibition: 87%
U-87 MG [10]
  inhibition in vivo at 3.125 mg/kg: 62%
[11]
  inhibition: 4%
[12]
  inhibition: -5%
[13]
  Cmax: 2580 ng/g
[14]
  inhibition: 4%
[15]
  inhibition: 15%
[16]
  inhibition: 19%
[17]
  inhibition: 100%
[18]
  inhibition: 9%
[19]
  inhibition: 12%
[20]
  inhibition: -2%
[21]
  half-life: 383 min
[22]
  inhibition: 1%
[23]
  inhibition: 6%
[24]
  inhibition: 0%
Mus musculus
  inhibition: Active
[25]
  inhibition: -1%
[26]
  fAUC: 63.45 ng·h/mL
[27]
  inhibition: -9%
[28]
  inhibition: 96%
